Results published in US20080025970A1, “Treatment of atherosclerosis” (priority 2004, published 2008).

Columns and labels:
Type in all cases: cell-based
[1] = test system: adhesion of monocytes to tissue sections of atherosclerotic plaque; assay: Adhesion of monocytes to tissue sections of atherosclerotic plaque
[2] = test system: adhesion of highly activated U937 cells to HSP60; assay: Adhesion of highly activated U937 cells to HSP60 coated wells; details: at the lowest concentration tested; FIG. 9
[3] = test system: adhesion of highly activated U937 cells to oxidised LDL; assay: Adhesion of highly activated U937 cells (PMA plus vitamin A and vitamin D) to oxidised LDL; details: raft-disrupting agents; all concentrations tested; FIG. 5
Procedure: Plastic wells were coated with oxidised LDL, or fibronectin 10 μg/ml for 16 hrs at 4° C., and washed. Monocytes were isolated in an unactivated state from one unit of buffy coat cells by the method of Tsouknos et al^26, labelled with carboxyfluorescein for 30 mins, and washed. Inhibitors and control Ig UPC10 were added to the plates in 50 μL, and then 50 μL of cells at a final concentration of 3×10^6/ml in the assay. The plates were incubated at 37° C. for 1 hr. Non-adherent cells were removed by a standardised washing procedure, and after addition of cell suspension to 3 wells as the 100% control, the plates were measured in an automatic fluorescent spectrophotometer.
U937 cells were stimulated with PMA 10 ng/ml, plus vitamin A (1 ug/ml) and vitamin D (10^-7 M) for 16 hours, and then the assay was performed as in Example 3.
U937 cells were stimulated as in Example 5, and the experiment performed as in Example 3. The results are shown in FIG. 6, with the legend as in the previous figures. CD14, CD18, TLR-4 antibodies were all murine Igs. MOPC21:—control murine IgG1, UPC10:—control murine IgG2a.

C[S+](C)[O-] [DMSO, Dimethylsulphoxide]
inhibition of adhesion of monocytes to tissue sections of atherosclerotic plaque [1]: inhibits adhesion | inhibition of binding of highly activated U937 cells to HSP60 [2]: highly inhibitory

C[C@@H]1[C@H](O)[C@@H](C)/C=C/C=C/CC/C=C/C=C/C=C/C=C/C(O[C@H]2O[C@H](C)[C@@H](O)[C@H](N)[C@@H]2O)CC2O[C@](O)(CC(O)C(O)CCC(O)CC(O)CC(O)CC(=O)O[C@H]1C)CC(O)C2C(=O)O (stereo partly shown) [nystatin]
inhibition of activated U937 cell adhesion to oxidised LDL [3]: near-total inhibition

methyl cyclodextrin
inhibition of activated U937 cell adhesion to oxidised LDL [3]: near-total inhibition
